Measured values reported in US11236049B2, “Amorphous and crystalline forms of IDO inhibitors” (BRISTOL-MYERS SQUIBB COMPANY, priority 2017, dated 2022).
Like-named read-outs stand apart in the source and are kept apart here.

How the values were obtained:
[1] = assay type: physicochemical
[2] = for AUC (Mean) / Dissolution Rate (Mean): 150 mg in 250 mL (0.60 mg/mL API equivalent), 37° C.
Description: Microdissolution Microdissolution experiments were conducted in a pIon μDiss Profiler microdissolution instrument (pION μDiss Profiler) with a fiber optic UV monitoring system, as follows: Probes: 2.5 mm probes (5 mm path length) Volume: 15 ml Stirring: 150 rpm Temperature: 37° C. […] The target doses were 150 mg in 250 mL (0.60 mg/mL API equivalent) in FaSSIF (pH 6.5) and FeSSIF (pH 5).

[3] = pH solubility of Compound 1 MSA Salt Form 1; assay type: physicochemical; conditions: 22 °C, aqueous buffer, thermodynamic from solid; from pH solubility profile of MSA Salt Form 1; read-out: Solubility for the free-base
Description: Measurements were taken using an Orion ATI Model 370 pH meter. […] To each vial was added 5 mL of various aqueous acidic and basic solutions. Each vial was stoppered and vortexed and sonicated to mix well. The pH of each sample was recorded. […] After 24 hours of stirring, the pH of each sample (as a suspension) was recorded. Suspensions were filtered with 0.2 micron Acrodisc syringe filters. The clear filtrates were collected and vortexed to mix well pH of each filtrated was recorded. pH of suspension and filtrate were nearly identical. A 1.0 mL aliquot of each of the filtrates 25-fold using 50% acetonitrile/50% Milli-Q water, q.w. each flask to 25 mL. […] Samples were assayed using the following HPLC method: Column: […] Mobile phase Solvent A: Water w/0.05% TFA • Solvent B: Acetonitrile w/0.05% TFA […] Column temperature: Ambient RT Detector Wavelength: 250 nm […] Working Concentration: […] Added 20 mL of 100% acetonitrile to the vial. Stoppered, vortexed, and sonicated the vial. […] Transferred the suspension to a 250 mL glass volumetric flask, and washed out the glass vial with 4×20 mL 50% acetonitrile/50% Milli-Q water, transferring each wash into the volumetric flask. All solids dissolved. Q.S. the volumetric flask to 250 mL final volume using 50% acetonitrile/50% Milli Q water, shake to give standard solution at 101.5 mcg/mL.

[4] = Solid state stability of Compound 1 free base Form 4; assay type: physicochemical
From the text: The results of those experiments are in the table, below.

[5] = assay type: physicochemical; remark: listed apart in the source
From the text: There was no evidence of form change, dehydration, or amorphous formation after 8 weeks. There was no change in TGA at 8 weeks in all samples.

[6] = 25° C./60% relative humidity, 4-week
[7] = 40° C./75% relative humidity (closed), 4-week
[8] = 40° C./75% relative humidity (open), 4-week
[9] = High intensity light (HIL), 4-week
[10] = solid state stress conditions tested

With `CS(=O)(=O)O.C[C@@H](C(=O)Nc1ccc(Cl)cc1)[C@H]1CC[C@@H](c2ccnc3ccc(F)cc32)CC1.O` [Compound 1 MSA salt monohydrate Form 2, (R)-N-(4-chlorophenyl)-2-((1S,4S)-4-(6-fluoroquinolin-4-yl)cyclohexyl)propanamide methanesulfonic acid salt monohydrate] the form change ([1]; stressing at 75% relative humidity at 40 C for 6 days) was “converts to Compound 1 MSA Salt Form 1 and Compound 1 MSA Salt monohydrate form 2”, the “dissolution rate compared with Compound 1 MSA Salt Form 1” value ([2]; Example 15, FaSSIF, statistically significant difference) was “slightly faster” and the “AUC (Mean)” value ([2]; FaSSIF (pH 6.5)) was 14315.281 µg·min/mL. The “Dissolution Rate (Mean)” value ([2]; FaSSIF (pH 6.5)) was 4.449 µg/mL/min, the “AUC (Mean)” value ([2]; FeSSIF (pH 5)) was 50014.687 µg·min/mL and the “Dissolution Rate (Mean)” value ([2]; FeSSIF (pH 5)) was 47.996 µg/mL/min. The “Peak Solubility (Mean)” value ([2]; pH 5) was 287.395 µg/mL and the “Peak Solubility (Mean)” value ([2]; pH 6.5) was 91.325 µg/mL.

`C[C@@H](C(=O)Nc1ccc(Cl)cc1)[C@H]1CC[C@@H](c2ccnc3ccc(F)cc32)CC1` [Compound 1, (R)-N-(4-chlorophenyl)-2-((1S,4S)-4-(6-fluoroquinolin-4-yl)cyclohexyl)propanamide] gave a solubility at 24 h [3] of 1 to 2 µg/mL.

Molecule `C[C@@H](C(=O)Nc1ccc(Cl)cc1)[C@H]1CC[C@@H](c2ccnc3ccc(F)cc32)CC1` [Compound 1 free base Form 4, (R)-N-(4-chlorophenyl)-2-((1S,4S)-4-(6-fluoroquinolin-4-yl)cyclohexyl)propanamide] has an Area % ([4]; 25° C./60% relative humidity, 2-week) of 99.78% Area %, an Area % [4, 6] of 99.77% Area % and an Area % ([4]; 40° C./75% relative humidity (closed), 2-week) of 99.78% Area %. It also gave an Area % [4, 7] of 99.71 Area %, an Area % ([4]; 40° C./75% relative humidity (open), 2-week) of 99.79% Area % and an Area % [4, 8] of 98.46% Area %. It also gave an Area % ([4]; 50° C., 2-week) of 99.68% Area %, an Area % ([4]; 50° C., 4-week) of 99.74% Area % and an Area % ([4]; High intensity light (HIL), 2-week) of 99.77% Area %. The Area % [4, 9] was 99.58% Area %, the Area % ([4]; RT/RL (room temperature/room light), 2-week) was 99.75% Area % and the Area % ([4]; RT/RL (room temperature/room light), 4-week) was 99.70% Area %. The time chemically stable [4, 10] was “at least 4 weeks”, the “time for which no changes were observed” value [4, 10] was “at least 2 weeks” and the form change ([1]; melt/quench experiment, XRPD showed no evidence of crystalline material) was “resulted in a glass with a few fine, birefringent acicular particles”.

With `CS(=O)(=O)O.C[C@@H](C(=O)Nc1ccc(Cl)cc1)[C@H]1CC[C@@H](c2ccnc3ccc(F)cc32)CC1` [Amorphous Compound 1 MSA, (R)-N-(4-chlorophenyl)-2-((1S,4S)-4-(6-fluoroquinolin-4-yl)cyclohexyl)propanamide methanesulfonate] the form change ([1]; heat stressing at 60° C. (Example 8A)) was “recrystallized to Compound 1 MSA Salt Form 1” and the form change ([1]; heat stressing at 60° C. after 9 days) was “converted to Compound 1 MSA Salt Form 1”.

With `C[C@@H](C(=O)Nc1ccc(Cl)cc1)[C@H]1CC[C@@H](c2ccnc3ccc(F)cc32)CC1` [Compound 1 Free Base Amorphous, (R)-N-(4-chlorophenyl)-2-((1S,4S)-4-(6-fluoroquinolin-4-yl)cyclohexyl)propanamide] the “form change on heating” value ([1]; heated between 67° C. and 150° C.) was “No crystallization was observed”.

For `C[C@@H](C(=O)Nc1ccc(Cl)cc1)C1CCC(c2ccnc3ccc(F)cc23)CC1.O` (stereo partly drawn) [Compound 1 Free Base monohydrate Form 2, (R)-N-(4-chlorophenyl)-2-((1S,4S)-4-(6-fluoroquinolin-4-yl)cyclohexyl)propanamide monohydrate], the time chemically stable [5] was “at least 13.5 weeks”, the Area % [5, 6] was 99.90% Area % and the Area % ([5]; 25° C./60% relative humidity, 8-week) was 99.90% Area %. For the same molecule, the Area % ([5]; 25° C./60% relative humidity, 13.5 week) was 99.73% Area %, the Area % [5, 7] was 99.90% Area % and the Area % ([5]; 40° C./75% relative humidity (closed), 8-week) was 99.90% Area %. The Area % ([5]; 40° C./75% relative humidity (closed), 13.5 week) was 99.62% Area %, the Area % [5, 8] was 99.90% Area % and the Area % ([5]; 40° C./75% relative humidity (open), 8-week) was 99.90% Area %. For the same molecule, the Area % ([5]; 40° C./75% relative humidity (open), 13.5 week) was 99.63% Area %, the Area % ([5]; 50° C., 4-week) was 99.90% Area % and the Area % ([5]; 50° C., 8-week) was 99.04% Area %. For the same molecule, the Area % ([5]; 50° C., 13.5 week) was 99.79% Area %, the Area % [5, 9] was 99.1% Area % and the Area % ([5]; RT/RL (room temperature, room light), 4-week) was 99.90% Area %. For the same molecule, the Area % ([5]; RT/RL (room temperature, room light), 8-week) was 99.90% Area %, the Area % ([5]; RT/RL (room temperature, room light), 13.5 week) was 99.78% Area % and the “evidence of form change, dehydration, or amorphous formation” value ([5]; after 8 weeks) was “no evidence”. For the same molecule, the “changes in PXRD” value ([5]; at 4 weeks or 8 weeks in all samples) was “No changes”, the “change in TGA” value ([5]; at 8 weeks in all samples) was “no change” and the “form change on heating” value ([1]; heated for ˜2 hours) was “no form change by XRPD”. For the same molecule, the behaviour on heating ([1]; heating to ˜125° C.) was “liquefy”, the “form change on dehydration” value ([1]; overnight hold at 0% RH) was “converted to an unstable form” and the “form change on heating” value ([1]; ˜79 to 80° C. for 1 day or ˜75° C. under nitrogen gas flow for ˜20 hours) was “partial conversion to other crystalline forms”. The rate of dissolution ([2]; Example 16, FeSSIF) was 23 µg/mL/min.
